pIC50: −log10 of the molar value.
Key:
[1] = target: Human sodium/glucose co-transporter type 1 (SGLT1) (Homo sapiens (Human), UniProt P13866); assay: In vitro human SGLT1 inhibition assay (14C-AMG uptake); type: cell-based; parameters: key to SGLT1 (human SGLT1 IC50): ***: a value less than 0.01 μM; **: a value less than 0.1 μM; *: a value less than 1 μM; —: a value not measured or exceeding μM; settings: HEK293 cells expressing human HA-SGLT1, 14C-AMG uptake
Method in brief: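 HEK293 cells stably expressing human HA-tagged SGLT1 (30,000/well, overnight) were washed into Na+-containing uptake buffer (140 mM NaCl, HEPES/Tris, 1 mg/mL BSA, pH 7.3). Cells then received compound plus 100 nCi 14C-AMG for 1–2 h at 37 °C; after washing, AMG uptake was quantified by scintillation counting.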

[2] = target: Human sodium/glucose co-transporter type 2 (SGLT2) (Homo sapiens (Human), UniProt P31639); assay: In vitro human SGLT2 inhibition assay (14C-AMG uptake); type: cell-based; settings: HEK293 cells expressing human HA-SGLT2, 14C-AMG uptake
Human sodium/glucose co-transporter type 2 (SGLT2), sequence (P31639 whole entry): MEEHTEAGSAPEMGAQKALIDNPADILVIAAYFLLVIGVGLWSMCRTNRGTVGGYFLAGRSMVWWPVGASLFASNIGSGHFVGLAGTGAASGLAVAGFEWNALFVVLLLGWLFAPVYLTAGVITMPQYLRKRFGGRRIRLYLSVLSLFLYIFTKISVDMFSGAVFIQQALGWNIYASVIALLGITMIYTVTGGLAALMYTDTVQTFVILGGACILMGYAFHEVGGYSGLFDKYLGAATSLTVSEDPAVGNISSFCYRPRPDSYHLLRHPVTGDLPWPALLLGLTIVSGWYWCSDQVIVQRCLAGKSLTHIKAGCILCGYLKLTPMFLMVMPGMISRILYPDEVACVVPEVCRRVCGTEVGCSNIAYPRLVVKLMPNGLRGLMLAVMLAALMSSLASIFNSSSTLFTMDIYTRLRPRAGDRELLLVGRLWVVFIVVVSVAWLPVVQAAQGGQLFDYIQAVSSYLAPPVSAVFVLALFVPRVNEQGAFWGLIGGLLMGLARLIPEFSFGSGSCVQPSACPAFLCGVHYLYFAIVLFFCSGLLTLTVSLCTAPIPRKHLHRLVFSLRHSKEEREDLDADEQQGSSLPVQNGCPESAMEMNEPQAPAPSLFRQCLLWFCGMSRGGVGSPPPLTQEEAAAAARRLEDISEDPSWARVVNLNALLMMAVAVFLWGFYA
Method in brief: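 HEK293 cells stably expressing HA-tagged human SGLT2, seeded overnight, washed into Na+-containing HEPES/Tris uptake buffer with 1 mg/mL BSA, pH 7.3. Compound added, then 14C-AMG (100 nCi); 1-2 h at 37 °C, 5% CO2. Washed cells counted by scintillation for 14C-AMG uptake.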

Human sodium/glucose co-transporter type 1 (SGLT1), sequence (P13866 whole entry): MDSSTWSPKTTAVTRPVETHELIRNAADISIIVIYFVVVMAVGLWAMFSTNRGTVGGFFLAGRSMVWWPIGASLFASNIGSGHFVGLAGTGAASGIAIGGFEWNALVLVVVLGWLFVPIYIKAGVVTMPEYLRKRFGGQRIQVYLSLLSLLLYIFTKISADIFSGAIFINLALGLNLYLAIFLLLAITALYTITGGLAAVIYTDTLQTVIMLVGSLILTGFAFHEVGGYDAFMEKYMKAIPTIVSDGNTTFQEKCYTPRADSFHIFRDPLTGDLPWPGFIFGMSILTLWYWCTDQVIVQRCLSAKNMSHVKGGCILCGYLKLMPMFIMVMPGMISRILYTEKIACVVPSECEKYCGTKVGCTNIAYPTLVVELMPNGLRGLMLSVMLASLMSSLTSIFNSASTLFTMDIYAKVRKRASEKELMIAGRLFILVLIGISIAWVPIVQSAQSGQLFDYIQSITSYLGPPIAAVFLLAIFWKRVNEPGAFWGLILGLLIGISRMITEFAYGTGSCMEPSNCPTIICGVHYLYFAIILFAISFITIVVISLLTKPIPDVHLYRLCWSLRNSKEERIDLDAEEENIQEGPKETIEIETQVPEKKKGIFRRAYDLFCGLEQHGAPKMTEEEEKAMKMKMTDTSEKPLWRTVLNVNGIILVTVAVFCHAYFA

| pIC50 [1] | pIC50 [2] | SGLT1 (human SGLT1 IC50) [1] | SMILES |
| --- | --- | --- | --- |
| > 8.00 | > 8.00 |  | CS[C@H]1O[C@@H](c2ccc(C)c(Cc3ccc(CCCC(=O)NC(C)(C)C(=O)NC4CCNCC4)cc3)c2)[C@H](O)[C@@H](O)[C@@H]1O [N-(2-methyl-1-oxo-1-(piperidin-4-ylamino)propan-2-yl)-4-(4-(2-methyl-5-((2S,3R,4R,5S,6R)-3,4,5-trihydroxy-6-(methylthio)tetrahydro-2H-pyran-2-yl)benzyl)phenyl)butanamide] |
| > 8.00 | > 8.00 |  | CS[C@H]1OC(c2ccc(C)c(Cc3ccc(OCCCNCC(C)(C)CO)cc3)c2)[C@H](O)[C@@H](O)[C@@H]1O (stereo partly drawn) [(3R,4R,5S,6R)-2-(3-(4-(3-((3-hydroxy-2,2-dimethylpropyl)amino)propoxy)benzyl)-4-methylphenyl)-6-(methylthio)tetrahydro-2H-pyran-3,4,5-triol] |
| > 7.00 | > 8.00 |  | CS[C@H]1O[C@@H](c2ccc(C)c(Cc3ccc(/C=C/C(=O)N4CCN(C)CC4)cc3)c2)[C@H](O)[C@@H](O)[C@@H]1O [(E)-3-(4-(2-methyl-5-((2S,3R,4R,5S,6R)-3,4,5-trihydroxy-6-(methylthio)tetrahydro-2H-pyran-2-yl)benzyl)phenyl)-1-(4-methylpiperazin-1-yl)prop-2-en-1-one] |
| > 8.00 | > 8.00 |  | CS[C@H]1O[C@@H](c2ccc(C)c(Cc3ccc(OCCCC(=O)NC(CO)(CO)CO)cc3)c2)[C@H](O)[C@@H](O)[C@@H]1O [N-(1,3-dihydroxy-2-(hydroxymethyl)propan-2-yl)-4-(4-(2-methyl-5-((2S,3R,4R,5S,6R)-3,4,5-trihydroxy-6-(methylthio)tetrahydro-2H-pyran-2-yl)benzyl)phenoxy)butanamide] |
| > 7.00 | > 7.00 |  | CS[C@H]1O[C@@H](c2ccc(C)c(Cc3ccc(OCC(O)CO)cc3)c2)[C@H](O)[C@@H](O)[C@@H]1O (stereo partly drawn) [(2S,3R,4R,5S,6R)-2-(3-(4-(2,3-dihydroxypropoxy)benzyl)-4-methylphenyl)-6-(methylthio)tetrahydro-2H-pyran-3,4,5-triol] |
|  | > 7.00 | — | CS[C@H]1O[C@@H](c2ccc(C)c(Cc3ccc(CCCC(=O)NCC(C)(C)C(=O)N(C)CCN(C)C)cc3)c2)[C@H](O)[C@@H](O)[C@@H]1O [N-(3-((2-(dimethylamino)ethyl)(methyl)amino)-2,2-dimethyl-3-oxopropyl)-4-(4-(2-methyl-5-((2S,3R,4R,5S,6R)-3,4,5-trihydroxy-6-(methylthio)tetrahydro-2H-pyran-2-yl)benzyl)phenyl)butanamide] |
| > 8.00 | > 8.00 |  | CS[C@H]1O[C@@H](c2ccc(C)c(Cc3ccc(CCCC(=O)NC(C)(C)C(=O)N4CCC(NC(=O)OC(C)(C)C)CC4)cc3)c2)[C@H](O)[C@@H](O)[C@@H]1O [tert-butyl (1-(2-methyl-2-(4-(4-(2-methyl-5-((2S,3R,4R,5S,6R)-3,4,5-trihydroxy-6-(methylthio)tetrahydro-2H-pyran-2-yl)benzyl)phenyl)butanamido)propanoyl)piperidin-4-yl)carbamate] |
| > 8.00 | > 8.00 |  | CS[C@H]1O[C@@H](c2ccc(C)c(Cc3ccc(OCCCC(=O)NC4(C(N)=O)CCCC4)cc3)c2)[C@H](O)[C@@H](O)[C@@H]1O [1-(4-(4-(2-methyl-5-((2S,3R,4R,5S,6R)-3,4,5-trihydroxy-6-(methylthio)tetrahydro-2H-pyran-2-yl)benzyl)phenoxy)butanamido)cyclopentanecarboxamide] |
| > 7.00 | > 8.00 |  | CS[C@H]1O[C@@H](c2ccc(C)c(Cc3ccc(Cl)cc3)c2)[C@H](O)[C@@H](O)[C@@H]1O [(2S,3R,4R,5S,6R)-2-(3-(4-chlorobenzyl)-4-methylphenyl)-6-(methylthio)tetrahydro-2H-pyran-3,4,5-triol] |
|  | > 7.00 | — | CS[C@H]1O[C@@H](c2ccc(C)c(Cc3ccc(CCC[C@H](N)C(=O)O)cc3)c2)[C@H](O)[C@@H](O)[C@@H]1O [(S)-2-amino-5-(4-(2-methyl-5-((2S,3R,4R,5S,6R)-3,4,5-trihydroxy-6-(methylthio)tetrahydro-2H-pyran-2-yl)benzyl)phenyl)pentanoic acid] |

Source: patent US9688710B2, “Inhibitors of sodium glucose cotransporter 1” (LEXICON PHARMACEUTICALS, INC., priority 2012, dated 2017)
